Results on two compounds are retold here after US11167059B2, “Compositions with reactive ingredients, and wound dressings, apparatuses, and methods” (KCI Licensing, Inc., priority 2010, dated 2021).

Series [1] has as its system Methicillin-resistant Staphylococcus aureus (MRSA). The experiment in a line: inhibition zone on MRSA monolayer in petri dish. In kind it is cell-based. Particulars: 30 μg control dose, 18 hours at 37° C. How it is done: Experiments were performed for some of the present reactive agents (and/or resulting solutions) to investigate their antibacterial properties. In a first experiment, an even monolayer of Methicillin-resistant Staphylococcus aureus (MRSA) bacteria was spread across the surface of each of several petri dishes, and either a 30 μg control dose of Vancomycin, or an 8 mm×5 mm piece of sponge was placed on each petri dish. The pieces of sponge included: a piece of polyurethane foam coated with a silver (Ag), a piece of dry silicone foam, a piece of silicone foam impregnated with a Polyhexanide solution, a piece of silicone foam deposited with Ca(ClO)2 salt, and a piece of silicone foam deposited with NaClO salt. After placement of the pieces of foam, saline was dropped onto the foams deposited with Ca(ClO)2 and NaClO salts, respectively, Each petri dish was incubated for eighteen (18) hours at 37° C., and the clear area in which the bacteria had been killed (inhibition zone) was measured. […] In a second, similar experiment, the monolayer of bacteria was E. Coli instead of MRSA, and the remainder of the second experiment was substantially the same as the first. The results of the second experiment were also similar. […] From these preliminary experiments, the inventors believe the present reactive agents and the resulting solutions to have effective antimicrobial properties. […]

Series [2] is described as follows: compatibility of suspension agents with Ca(OCl)2 (OCl− concentration by UV-Vis). In kind it is physicochemical. The settings on record: about 13 mg Ca(OCl)2 in methylene chloride solution of agent, about one hour in the dark. How it is done: FIG. 6B depicts a chart illustrating the correlation of hypochlorite concentration from the UV absorbance of FIG. 6A with corresponding concentrations obtained by Iodine titration. FIG. 6C depicts a chart of OCl^− concentration in solutions with certain of the present suspension agents, including a control of only Ca(OCl)2 in solution (of methylene chloride), Ca(OCl)2 in PCL-1 solution having 0.5 g of PCL per 100 mL of methylene chloride; Ca(OCl)2 in PCL-2 solution having 1.0 g of PCL per 100 mL of methylene chloride; and Ca(OCl)2 in solution with TWEEN 80 (also known as polysorbate 80) having 0.1 g of TWEEN 80 per 10 g of methylene chloride. […] For each solution, approximately 13 mg of Ca(OCl)2 was added to each methylene chloride solution and the solution was placed in the dark for a period of about one hour. Then 5 mL of distilled water was added to each solution, and each was shaken to mix its respective ingredients. […] After settling, for each solution, one milliliter of the aqueous layer was removed and mixed with 10 mL of 0.1 N NaOH (e.g., to increase the pH to ensure all hypochlorous acid is converted to hypochlorite for complete capture of active chlorine), and evaluated with UV-Vis spectroscopy to determine the concentration of OCl (e.g., to determine whether the OCl— had degraded or been consumed by the polymer).

Turning to `CN[C@H](CC(C)C)C(=O)N[C@H]1C(=O)N[C@@H](CC(N)=O)C(=O)N[C@H]2C(=O)N[C@H]3C(=O)N[C@H](C(=O)N[C@H](C(=O)O)c4cc(O)cc(O)c4-c4cc3ccc4O)[C@H](O)c3ccc(c(Cl)c3)Oc3cc2cc(c3O[C@@H]2O[C@H](CO)[C@@H](O)[C@H](O)[C@H]2O[C@H]2C[C@](C)(N)[C@H](O)[C@H](C)O2)Oc2ccc(cc2Cl)[C@H]1O` [Vancomycin], in series [1], the inhibition zone is listed as 200 mm^2.
Take polysorbate 80 [TWEEN 80]: the “compatibility of suspension agent with Ca(OCl)2” value in series [2] is given as “compatible with Ca(OCl)2”.
